Data on three compounds can be found in PMC12731536, “Sc(III) Complexes of Pyclen Derivative Ligands as Probes for Hypoxia: Synthesis, Chemical Characterization, ^44Sc‐Radiolabeling, and Preclinical Assessment” (Chemistry (Weinheim an Der Bergstrasse, Germany), 2025).

For data set [1] the following is noted: I = 0.15 M NaCl, T = 25 °C; cited from earlier work.
The nature of data set [2]: pH‐potentiometric determination of ligand protonation constants. It counts as physicochemical. Particulars: I = 0.15 M NaCl, T = 25 °C. Here is the method:
The equilibrium study of the PC2AM^nBu ligand has been started by determining the protonation constants in 0.15 M and 1.00 M NaCl ionic strength. (As the stability of the Sc(III) complex was determined in 1.00 M ionic strength, we had to perform the pH‐potentiometric titration of ligands using 1.00 M ionic strengths also.) The results of pH‐potentiometric measurement are shown in Table 1, where the corresponding data for 3,9‐PC2A,^[ [42] ^] PCTA ^[ [46] ^] and PC2AM‐NI ligands determined under identical conditions are also presented. Knowledge of the protonation constants defined by Eqn. 1 and 2 are essential for the calculation of the stability constants of the Sc(III) complexes:
(1) PC2AM^nBu^2−+nH^+⇌Hn(PC2AM^nBu)^−2+n (2) βn=HnPC2AM^nBu^−2+n/PC2AM^nBu^2−H^+^n
The protonation constants of the ligands, as well as the concentrations of the ligand stock solutions, were determined by pH‐potentiometric method using a Metrohm 785 DMP Titrino automatic titrator using a Metrohm 6.00234.100 combined glass electrode. The titrations were carried out in the pH range 1.75–11.80 and the pH electrode was calibrated by a two‐point calibration routine with the use of 0.05 M KH‐phthalate (pH = 4.005) and 0.01 M borax (pH = 9.177 buffers. The samples were stirred at 25 °C (±0.1 °C) and N2 gas bubbled into the system to ensure inert conditions and to eliminate the effect of the presence of CO2. For the calculation of [H^+] from the measured pH values, the method proposed by Irving et al. was applied.^[ [61] ^] For this, a 0.01 M HCl solution was titrated with the standardized NaOH solution in the presence of 0.15 M NaCl ionic strength at 25 °C. The differences between the measured (pHread) and calculated pH (‐log[H^+]) values were used to obtain the equilibrium H^+ concentration from the pHmeas values during the titrations. By fitting the resulting titration curves (pH – V (NaOH) data pairs) with the PSEQUAD program, the protonation constants of the ligands were determined.^[ [47] ^] The titration of the [Sc(PC2AM^nBu)]^+ with NaOH was performed with the same method by applying very similar conditions.

For data set [3], the system named is B16‐F10 tumor‐bearing C57BL/6 mice. Briefly: In vivo PET studies (MiniPET‐II). Particulars: n = 5. The source says:
The B16‐F10 mouse melanoma cell line (MC1‐R positive) was the kind gift of the Department of Immunology, Faculty of Medicine, University of Debrecen (Debrecen, Hungary). The cells were routinely cultivated according to the manufacturer's protocols using Dulbecco's Modified Eagle's medium (DMEM, Merck Life Science Ltd., Budapest, Hungary) supplemented with 1% (v/v) MEM Non‐Essential Amino Acid solution (Merck Life Science Ltd.), 1% MEM Vitamins solution (Merck Life Science Ltd.), 10% Fetal Bovine Serum (FBS, GIBCO Life Technologies, Billings, MT, USA), and 1% Antibiotic and Antimicotic solution (Merck Life Science Ltd.) at 37 °C in a humidified atmosphere containing 5% CO2. For tumor induction the cells were used at 85% confluence. Cell viability was determined by applying trypan blue exclusion assay. Those cells were used for subsequent experiments where the staining confirmed that more than 90% of them were viable.
(§1) All animal experiments confirmed to all applicable sections of the Hungarian Laws and the directions and regulations of the European Union, and the in vivo studies have been ethically approved by the Ethics Committee for Animal Experimentation of the University of Debrecen (license number: 16/2020/DEMÁB). C57BL/6 male mice (n = 32, older than 12 weeks, approx. 20 grams) obtained from Charles River Animalab Ltd. (Budapest, Hungary) were used for in vivo PET studies and biodistribution assays. To induce tumor models, 20 mice were subcutaneously transplanted with approximately 3x10^6 tumor cells (in 100 µL physiological saline) at the left shoulder area. Tumor growth was regularly monitored by using caliper measurements. During tumor generation inhalation anesthesia was induced using 3% isoflurane (Forane, AbbVie, Chicago, IL, USA), 0.4 L/min O2, and 0.8 L/min N2O.
Preclinical PET studies were performed on the MiniPET‐II scanner of the Department of Nuclear Medicine and Translational Imaging, Institute of Medical Imaging, Faculty of Medicine, University of Debrecen (Debrecen, Hungary). Fourteen days post tumor induction, tumor‐bearing mice (n = 20) were anesthetized (see above) and tail vein injected with approximately 5–7 MBq of [^44Sc][Sc(PC2AM‐NI)]^+ or [^44Sc][Sc(PC2A‐Ph‐NI)]^+. After a 90 ‐ and a 240‐minutes awake incubation period, the mice were re‐anesthetized and 20‐minutes static PET scans were taken. To quantify radiopharmaceutical uptake, followed by image reconstruction (3D ordered‐subsets expectation‐maximization algorithm (3D‐OSEM)), volumes of interest (VOIs) were manually outlined on the tumors and on the hindlimb muscle tissue as a reference region. Using a dedicated imaging analysis software: BrainCAD image analysis software (version: 1.12‐bulid3), mean standardized uptake values (SUVmean) were determined with the following equation: SUV = [VOI activity (Bq/mL)]/[injected activity (Bq)/animal weight (g)]. To assess image contrast, tumor‐to‐off‐target ratios (tumor‐to‐muscle ratio/T/M) were also calculated.

Data set [4] relates to healthy control and B16‐F10 melanoma cell‐bearing mice. Briefly: Ex vivo biodistribution studies. It is filed as in vivo. The following applies: for B16‐F10 tumor uptake: 14 days after cancer cell inoculation, n = 5 tumor‐bearing mice.
Description: as §1
To evaluate the organ distribution of the novel ^44Sc‐labeled radiotracers, ex vivo biodistribution experiments were additionally performed. Healthy control and tumor‐bearing mice were administered with approximately 5–7 MBq of [^44Sc][Sc(PC2AM‐NI)]^+ or [^44Sc][Sc(PC2A‐Ph‐NI)]^+ and at 90 ‐ and 240‐minutes post injection, all of them were put to death. Organs and tissues of interest were collected, weighed wet, and γ‐counted (Perkin‐Elmer Packard 406 Cobra, Waltham, MA, USA). After decay correction, the radioactivity of each tissue and organ was calculated as %ID/g.

SMILES strings stand for the structures. Like-named read-outs stand apart in the source and are kept apart here.

With `O=C(O)CN1CCNCCN(CC(=O)O)Cc2cccc(n2)C1` [3,9‐PC2A], in data set [1], the “log K 1 ^H” value is given as 12.25, the “log K 2 ^H” value is 5.97, the “log K 3 ^H” value is 3.47 and the “log K 4 ^H” value is given as 1.99. Further, the “log β 2 ^H” value in data set [1] is listed as 18.22.
Consider `O=C(O)CN1CCN(CC(=O)NCCCCCCn2ccnc2[N+](=O)[O-])CCN(CC(=O)O)Cc2cccc(n2)C1` [PC2AM‐NI], for which, in data set [2], the “log K 1 ^H” value is reported as 8.60(3), the “log K 2 ^H” value was 7.39(3), the “log K 3 ^H” value is 2.28(3) and the “log K 4 ^H” value is 1.58(3). Besides, in data set [2], the “log β 2 ^H” value came out at 15.99.
For `O=C([O-])CN1CCN(CC(=O)NCCCCCCn2ccnc2[N+](=O)[O-])CCN(CC(=O)[O-])Cc2cccc(n2)C1.[44Sc+3]` [[^44Sc][Sc(PC2AM‐NI)]^+], in data set [3] (90 minutes post injection), the “B16‐F10 SUVmean” value came to 0.08 ± 0.02, the “T/M ratio (tumor‐to‐muscle)” value is reported as 4.04 ± 0.02 and the “muscle SUVmean” value was found to be 0.02 ± 0.01. In addition, in data set [3] (240 minutes post injection), the “B16‐F10 SUVmean” value is 0.04 ± 0.02, the “T/M ratio (tumor‐to‐muscle)” value is reported as 4.02 ± 0.02 and the “muscle SUVmean” value is reported as 0.01 ± 0.01. In data set [4] (90 minutes post injection), this compound had a Blood uptake of 0.09 ± 0.02 %ID/g, a Bone uptake of 0.02 ± 0.00 %ID/g, a Brain uptake of 0.01 ± 0.01 %ID/g and a Fat uptake of 0.05 ± 0.02 %ID/g. In data set [4] (90 minutes post injection), the Heart uptake was 0.04 ± 0.01 %ID/g, the Kidney uptake turned out to be 0.83 ± 0.29 %ID/g, the Liver uptake is reported as 1.55 ± 1.66 %ID/g and the Lung uptake is 0.10 ± 0.02 %ID/g. Also, in data set [4] (90 minutes post injection), the Muscle uptake came to 0.02 ± 0.00 %ID/g, the Pancreas uptake came out at 0.04 ± 0.02 %ID/g, the Spleen uptake stood at 0.07 ± 0.02 %ID/g and the Stomach uptake is on record as 0.09 ± 0.02 %ID/g. Also, in data set [4] (90 minutes post injection), the Urine activity worked out at 77.19 ± 37.26 %ID/g, the gall bladder uptake is reported as 42.46 ± 33.31 %ID/g, the large intestines uptake turned out to be 0.10 ± 0.07 %ID/g and the salivary gland uptake was found to be 0.03 ± 0.00 %ID/g. In data set [4] (90 minutes post injection), the small intestines uptake is on record as 0.92 ± 0.33 %ID/g and the “B16‐F10 tumor uptake” value is recorded as 0.27 ± 0.07 %ID/g. Besides, in data set [4] (240 minutes post injection), the Blood uptake came out at 0.02 ± 0.01 %ID/g, the Bone uptake turned out to be 0.01 ± 0.00 %ID/g, the Brain uptake is 0.01 ± 0.00 %ID/g and the Fat uptake stood at 0.01 ± 0.00 %ID/g. In data set [4] (240 minutes post injection), this compound had a Heart uptake of 0.01 ± 0.00 %ID/g, a Kidney uptake of 0.60 ± 0.37 %ID/g, a Liver uptake of 0.90 ± 1.01 %ID/g and a Lung uptake of 0.03 ± 0.01 %ID/g. In data set [4] (240 minutes post injection), this compound yielded a Pancreas uptake of 0.01 ± 0.00 %ID/g, a Spleen uptake of 0.03 ± 0.02 %ID/g, a Stomach uptake of 0.04 ± 0.03 %ID/g and a Urine activity of 5.44 ± 1.23 %ID/g. In data set [4] (240 minutes post injection), this compound showed a gall bladder uptake of 15.82 ± 13.89 %ID/g, a large intestines uptake of 0.12 ± 0.12 %ID/g, a salivary gland uptake of 0.01 ± 0.01 %ID/g and a small intestines uptake of 0.20 ± 0.10 %ID/g. The “B16‐F10 tumor uptake” value in data set [4] (240 minutes post injection) turned out to be 0.17 ± 0.07 %ID/g.
